# According to ChEMBL document CHEMBL1926524, “Cyclolobatriene, a novel prenylated germacrene diterpene, from the soft coral Lobophytum pauciflorum” (Bioorg Med Chem, 2012):
# Tested on: A-431
# Assay: Cytotoxicity against human A431 cells after 4 days by coulter counting
# Assay type: functional, cell-based
# Settings: A-431, 96 h
row,SMILES,IC50
1,C=C[C@@]1(C)CC[C@H](C2=CC[C@H](C(C)(C)O)OC2)C[C@@H]1C(=C)C [LOBATRIENE],0.41 µM
2,C/C1=C\C[C@@H](C2=CC[C@H](C(C)(C)O)OC2)CC/C(C)=C/CC1 [CYCLOLOBATRIENE],0.64 µM
3,C=C[C@@]1(C)CC[C@H](/C(C)=C/C=C/C(C)(C)O)C[C@@H]1C(=C)C [FUSCOL],0.52 µM
4,C/C1=C\C[C@@H](/C(C)=C/C=C/C(C)(C)O)CC/C(C)=C/CC1 [EUNICOL],0.35 µM
